Results as given in patent publication US11672788B2, “Histone deacetylase inhibitors for immunomodulation in tumor microenvironment” (GREAT NOVEL THERAPEUTICS BIOTECH & MEDICALS CORPORATION, priority 2020, dated 2023).

What was measured:
[1] = test system: NCI-N87; test: In vitro cytotoxicity MTT assay; assay type: cell-based; details: Homo sapiens, 72 h, IC50 ± SD
Procedure: (§1) Six different cell lines were used, including human breast cancer cell line MDA-MB-231 (6×10^3), MDA-MB-453 (2.4×10^4), SK-BR-3 (6×10^3), human breast epithelial cell line M10 (6×10^3), human gastric carcinoma NCI-N87 (2.4×10^4), and human colorectal adenocarcinoma SW48 (2.4×10^4), and seeded in a 96 well plate. Cell lines were obtained from Bioresource Collection and Research Center, BCRC, Taiwan. […] After 72 h, MTT assay (Cayman™) was used to determine the cellular viability.

[2] = test system: histone H3 acetylation (AcH3) in SW48 cells; test: Western blot of histone H3 acetylation; assay type: cell-based, human; details: SW48, 24 h, FIG. 12c
Procedure: Human breast cancer MDA-MB-231 cells and human colorectal adenocarcinoma SW48 cells were analyzed. MDA-MB-231 and SW48 were obtained from Bioresource Collection and Research Center (BCRC, Taiwan). MDA-MB-231 and SW48 were grown at 37° C. under humidified air supplemented without CO2 in Leibovitz's L-15 (cat. #11415114, Thermo Fisher Scientific) containing 10% heat inactivated fetal calf serum (Thermo Scientific), 1× concentration of MycoZap antibiotics (cat. #VZA-2011, Lonza). Cells were treated with GNTbm compounds series, Chidamide or Entinostat for different time periods or at varied doses. Cells were treated with indicated doses for 24 h or cells were treated with indicated doses for different time periods. Cell pellets were dissolved with RIPA buffer (cat. #20-188, Merck) with protease and phosphatase inhibitors (cat. #K272, BioVision) and clarified by centrifugation. Equal amounts of total protein were resolved by SDS-PAGE and transferred to polyvinylidene fluoride membranes (cat. #1620177, BIO-RAD). Blots were incubated with primary antibodies against β-actin (cat. #sc-47778, Santa Cruz Biotechnology), Histone 3ac (cat. #61637, Active Motif), and HRP secondary antibodies anti-rabbit (ab6721, Abcam) and anti-mouse (sc-2005, Santa Cruz). Blots were developed using the ECL Western Blotting Substrate (cat. #sc-2048, Santa Cruz Biotechnology) Image blots were analyzed with the iBright FL1000 (Thermo Fisher Scientific) imaging systems.

[3] = test system: SW48 cells; test: Cell cycle arrest by PI flow cytometry; assay type: cell-based, human; details: for Percentage of Cell Cycle Distribution G0/G1 / Percentage of Cell Cycle Distribution G2/M / Percentage of Cell Cycle Distribution S: 72 h; for Cell cycle arrest: SW48, doses of Table 12
Procedure: (§2) A PI/RNase staining assay (BD Bioscience™) was performed to reveal the presence of cell cycle arrest and apoptotic cells after treatment with GNTbm compounds, Chidamide and Entinostat. […] After treatment cells were harvested, fixed with 80% ethanol for 24 h, washed with 1×PBS and stained with PI/RNase for 15 min at room temperature. The cells were then analyzed using Flow Cytometer within 1 h.

[4] = test system: SW48 cells; test: Cell apoptosis (sub-G1) by PI flow cytometry; assay type: cell-based, human; details: 72 h; for Induction of apoptosis: SW48, indicated doses (Table 13)
Procedure: as §2

[5] = test system: MDA-MB-453; test: In vitro cytotoxicity MTT assay; assay type: cell-based, human; details: Homo sapiens, MDA-MB-453, 72 h, IC50 ± SD
Procedure: as §1

[6] = test system: M10; test: In vitro cytotoxicity MTT assay; assay type: cell-based, human; details: Homo sapiens, M10, 72 h, IC50 ± SD
Procedure: as §1

[7] = test system: MDA-MB-231; test: In vitro cytotoxicity MTT assay; assay type: cell-based, human; details: Homo sapiens, MDA-MB-231, 72 h, IC50 ± SD
Procedure: as §1

[8] = test system: SW48; test: In vitro cytotoxicity MTT assay; assay type: cell-based, human; details: Homo sapiens, SW48, 72 h, IC50 ± SD
Procedure: as §1

[9] = target: HDAC3 (Homo sapiens (Human), UniProt O15379); test: HDACs 1, 2, and 3 enzymatic inhibition (fluorogenic kit, 1 h); assay type: biochemical; details: 37° C.
Sequence of HDAC3 (O15379 whole entry): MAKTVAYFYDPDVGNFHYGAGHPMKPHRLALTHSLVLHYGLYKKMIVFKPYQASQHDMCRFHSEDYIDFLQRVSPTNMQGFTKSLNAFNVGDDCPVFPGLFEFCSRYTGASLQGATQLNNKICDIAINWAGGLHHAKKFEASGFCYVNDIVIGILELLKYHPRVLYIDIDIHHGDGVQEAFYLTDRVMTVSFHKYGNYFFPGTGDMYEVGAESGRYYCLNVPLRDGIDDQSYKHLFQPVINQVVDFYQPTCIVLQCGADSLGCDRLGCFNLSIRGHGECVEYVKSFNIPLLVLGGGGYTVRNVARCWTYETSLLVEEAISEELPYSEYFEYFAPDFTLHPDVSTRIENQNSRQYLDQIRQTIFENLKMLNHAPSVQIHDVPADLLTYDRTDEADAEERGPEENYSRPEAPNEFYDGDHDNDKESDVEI
Sequence of HDAC3 (Q9Y618 395-489 partner): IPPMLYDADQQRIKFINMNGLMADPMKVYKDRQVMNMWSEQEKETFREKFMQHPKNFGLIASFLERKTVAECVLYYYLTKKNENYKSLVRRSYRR
Procedure: (§3) HDACs assay was performed according to standard Protocols (Fluorgenic HDACs 1, 2, and 3 assay kit, BPS Bioscience™). […] After 1 h, assay developer was added to the samples and the absorbance was read at fluorogenic wavelength. The relative inhibition to HDACs 1, 2, and 3 activities in each sample was determined.

[10] = target: HDAC1 (Homo sapiens (Human), UniProt Q13547); test: as above; assay type: biochemical; details: 37° C.
Sequence of HDAC1 (Q13547 whole entry): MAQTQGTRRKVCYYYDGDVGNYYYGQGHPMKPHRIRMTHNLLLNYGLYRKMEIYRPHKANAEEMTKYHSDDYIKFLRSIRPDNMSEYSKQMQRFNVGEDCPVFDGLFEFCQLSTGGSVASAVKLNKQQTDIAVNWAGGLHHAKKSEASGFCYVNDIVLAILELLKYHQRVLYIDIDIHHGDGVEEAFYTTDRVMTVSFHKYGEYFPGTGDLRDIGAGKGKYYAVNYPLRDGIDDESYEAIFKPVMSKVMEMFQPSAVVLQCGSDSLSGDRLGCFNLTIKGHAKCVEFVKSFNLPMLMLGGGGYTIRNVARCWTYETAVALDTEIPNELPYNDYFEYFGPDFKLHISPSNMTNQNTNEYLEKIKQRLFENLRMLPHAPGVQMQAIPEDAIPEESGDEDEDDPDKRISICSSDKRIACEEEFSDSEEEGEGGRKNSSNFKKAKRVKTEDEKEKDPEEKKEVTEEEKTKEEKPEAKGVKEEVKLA
Procedure: as §3

[11] = target: HDAC2 (Homo sapiens (Human), UniProt Q92769); test: as above; assay type: biochemical; details: 37° C.
Sequence of HDAC2 (Q92769 whole entry): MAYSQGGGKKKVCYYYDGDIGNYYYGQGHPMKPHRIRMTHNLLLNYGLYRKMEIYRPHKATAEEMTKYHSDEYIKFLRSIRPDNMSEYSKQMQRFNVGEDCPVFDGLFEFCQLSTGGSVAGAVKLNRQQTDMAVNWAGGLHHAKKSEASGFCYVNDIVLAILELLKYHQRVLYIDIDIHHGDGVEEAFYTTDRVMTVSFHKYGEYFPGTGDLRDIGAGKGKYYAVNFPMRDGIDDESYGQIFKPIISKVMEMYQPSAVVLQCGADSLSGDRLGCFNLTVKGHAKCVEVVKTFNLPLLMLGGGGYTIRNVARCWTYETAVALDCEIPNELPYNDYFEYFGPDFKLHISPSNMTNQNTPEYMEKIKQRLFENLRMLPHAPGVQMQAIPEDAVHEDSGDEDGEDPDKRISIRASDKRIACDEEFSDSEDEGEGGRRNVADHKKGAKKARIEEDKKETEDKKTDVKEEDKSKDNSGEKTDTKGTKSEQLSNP
Procedure: as §3

[12] = Saturation solubility; assay type: physicochemical; details: ddH2O, 25° C., 90 minutes; mean ± SD; BDL: Below detection limit
Procedure: Samples of 5 mg of compounds were added to 5 ml volumetric flasks containing ddH2O and shaken at 100 rpm in an incubator at 25° C. for 90 minutes. The resulting suspension was filtered through a 0.22 μm filter. The concentrations of compounds were determined spectrophotometrically at 256 nm. The saturation solubility of each sample was determined in triplicates and the mean value and standard deviation were reported.

## Nc1ccccc1NC(=O)c1ccc(NC(=O)C/C=C/c2cccnc2)cn1 [GNTbm-05, 5-((E)-4-(pyridin-3-yl)but-3-enamido)-N-(2-aminophenyl)pyridine-2-carboxamide]
[1]
  IC50: 280 ± 10 nM
[2]
  Histone 3 acetylation expression versus Chidamide: more potent in inducing the histone 3 acetylation expression in SW48 cells than Chidamide
[3]; SW48, 0.125 μM
  Percentage of Cell Cycle Distribution G0/G1: 61.5%
  Percentage of Cell Cycle Distribution G2/M: 18.7%
  Percentage of Cell Cycle Distribution S: 19.8%
[3]; SW48, 0.5 μM
  Percentage of Cell Cycle Distribution G0/G1: 59.2%
  Percentage of Cell Cycle Distribution G2/M: 22.2%
  Percentage of Cell Cycle Distribution S: 18.6%
[3]; SW48, 1 μM
  Percentage of Cell Cycle Distribution G0/G1: 55.4%
  Percentage of Cell Cycle Distribution G2/M: 31.8%
  Percentage of Cell Cycle Distribution S: 12.8%
[3]; SW48, 2 μM
  Percentage of Cell Cycle Distribution G0/G1: 53.6%
  Percentage of Cell Cycle Distribution G2/M: 34.6%
  Percentage of Cell Cycle Distribution S: 11.8%
[3]
  Cell cycle arrest: significantly induced cell cycle arrest in the G2/M phase in SW48 cells
[4]; SW48, 0.125 μM
  Percentages of Cell Apoptosis: 9.0%
[4]; SW48, 0.5 μM
  Percentages of Cell Apoptosis: 17.9%
[4]; SW48, 1 μM
  Percentages of Cell Apoptosis: 27.2%
[4]; SW48, 2 μM
  Percentages of Cell Apoptosis: 42.4%
[4]
  Induction of apoptosis: potent in inducing apoptosis in SW48 cells
[5]
  IC50: 1580 ± 3 nM
[6]
  IC50: 430 ± 30 nM
[7]
  IC50: 1660 ± 20 nM
[8]
  IC50: 1640 ± 20 nM
[9]
  IC50: 1 ± 0.04 nM
[10]
  IC50: 140 ± 2 nM
[11]
  IC50: 360 ± 20 nM

## Cc1ccc(/C=C/CC(=O)Nc2ccc(C(=O)Nc3ccccc3N)nc2)cn1 [GNTbm-06, 5-((E)-4-(6-methylpyridin-3-yl)but-3-enamido)-N-(2-aminophenyl)pyridine-2-carboxamide]
[1]
  IC50: 2200 ± 30 nM
[5]
  IC50: 1590 ± 10 nM
[6]
  IC50: 1950 ± 30 nM
[7]
  IC50: 3870 ± 700 nM
[8]
  IC50: 2320 ± 80 nM
[12]
  Saturation Solubility: BDL
[9]
  IC50: 9 ± 10 nM
[10]
  IC50: 100 ± 20 nM
[11]
  IC50: 390 ± 20 nM

## Cc1ccc(CCCC(=O)Nc2ccc(C(=O)Nc3ccc(F)cc3N)nc2)cn1 [GNTbm-08, 5-(4-(6-methylpyridin-3-yl)butanamido)-N-(2-amino-4-fluorophenyl)pyridine-2-carboxamide]
[1]
  IC50: 15500 ± 1700 nM
[5]
  IC50: 3780 ± 500 nM
[6]
  IC50: 20800 ± 140 nM
[7]
  IC50: > 50000 nM
[8]
  IC50: 18400 ± 1000 nM
[9]
  IC50: 1 ± 0.02 nM
[10]
  IC50: 370 ± 310 nM
[11]
  IC50: 1540 ± 280 nM

## Nc1cc(C(F)(F)F)ccc1NC(=O)c1ccc(NC(=O)C/C=C/c2cccnc2)cn1 [GNTbm-11, 5-((E)-4-(pyridin-3-yl)but-3-enamido)-N-(2-amino-4-(trifluoromethyl)phenyl)pyridine-2-carboxamide]
[1]
  IC50: 1870 ± 40 nM
[5]
  IC50: 2280 ± 60 nM
[6]
  IC50: 1650 ± 200 nM
[7]
  IC50: 1710 ± 40 nM
[8]
  IC50: 2600 ± 450 nM
[9]
  IC50: 1 nM
[10]
  IC50: > 20000 nM
[11]
  IC50: > 20000 nM

## Cc1ccc(/C=C/CC(=O)Nc2ccc(C(=O)Nc3ccc(C(F)(F)F)cc3N)nc2)cn1 [GNTbm-12, 5-((E)-4-(6-methylpyridin-3-yl)but-3-enamido)-N-(2-amino-4-(trifluoromethyl)phenyl)pyridine-2-carboxamide]
[1]
  IC50: > 50000 nM
[5]
  IC50: 15800 ± 3900 nM
[6]
  IC50: 38500 ± 5900 nM
[7]
  IC50: > 50000 nM
[8]
  IC50: > 50000 nM
[9]
  IC50: > 20000 nM
[10]
  IC50: > 20000 nM
[11]
  IC50: > 20000 nM

## Cc1ccc(CCCC(=O)Nc2ccc(C(=O)Nc3ccccc3N)nc2)cn1 [GNTbm-19, 5-(4-(6-methylpyridin-3-yl)butanamido)-N-(2-aminophenyl)pyridine-2-carboxamide]
[1]
  IC50: 4300 ± 1400 nM
[5]
  IC50: 1810 ± 20 nM
[6]
  IC50: 2890 ± 120 nM
[7]
  IC50: 5690 ± 1700 nM
[8]
  IC50: 8730 ± 240 nM
[9]
  IC50: 2980 ± 80 nM
[10]
  IC50: 480 ± 30 nM
[11]
  IC50: 1420 ± 190 nM

## Cc1ccc(CCCC(=O)Nc2ccc(C(=O)Nc3ccc(C(F)(F)F)cc3N)nc2)cn1 [GNTbm-25, 5-(4-(6-methylpyridin-3-yl)butanamido)-N-(2-amino-4-(trifluoromethyl)phenyl)pyridine-2-carboxamide]
[1]
  IC50: > 50000 nM
[5]
  IC50: 19100 ± 2070 nM
[6]
  IC50: > 50000 nM
[7]
  IC50: > 50000 nM
[8]
  IC50: > 50000 nM
[9]
  IC50: > 20000 nM
[10]
  IC50: > 20000 nM
[11]
  IC50: > 20000 nM

## Nc1cc(C(F)(F)F)ccc1NC(=O)c1ccc(NC(=O)C/C=C/c2cccnc2)cc1 [GNTbm-33, 4-((E)-4-(pyridin-3-yl)but-3-enamido)-N-(2-amino-4-(trifluoromethyl)phenyl)benzamide]
[1]
  IC50: 1750 ± 20 nM
[5]
  IC50: 1940 ± 220 nM
[6]
  IC50: 2010 ± 90 nM
[7]
  IC50: 1620 ± 20 nM
[8]
  IC50: 1790 ± 30 nM
[9]
  IC50: > 20000 nM
[10]
  IC50: > 20000 nM
[11]
  IC50: > 20000 nM

## Nc1cc(F)ccc1NC(=O)c1ccc(NC(=O)CCCc2cccnc2)cc1 [GNTbm-37, 4-(4-(pyridin-3-yl)butanamido)-N-(2-amino-4-fluorophenyl)benzamide]
[1]
  IC50: 10600 ± 600 nM
[5]
  IC50: 4890 ± 340 nM
[6]
  IC50: 8850 ± 590 nM
[7]
  IC50: 8070 ± 540 nM
[8]
  IC50: 21300 ± 1640 nM
[9]
  IC50: 1740 ± 290 nM
[10]
  IC50: 9040 ± 600 nM
[11]
  IC50: 3150 ± 310 nM

## Nc1ccccc1NC(=O)c1ccc(NC(=O)C/C=C/c2cccnc2)cc1 [GNTbm-38, 4-((E)-4-(pyridin-3-yl)but-3-enamido)-N-(2-aminophenyl)benzamide]
[1]
  IC50: 420 ± 80 nM
[2]
  Histone 3 acetylation expression versus Chidamide: more potent in inducing the histone 3 acetylation expression in SW48 cells than Chidamide
[3]; SW48, 0.125 μM
  Percentage of Cell Cycle Distribution G0/G1: 63.3%
  Percentage of Cell Cycle Distribution G2/M: 17.4%
  Percentage of Cell Cycle Distribution S: 19.3%
[3]; SW48, 0.5 μM
  Percentage of Cell Cycle Distribution G0/G1: 61.8%
  Percentage of Cell Cycle Distribution G2/M: 27.8%
  Percentage of Cell Cycle Distribution S: 10.4%
[3]; SW48, 1 μM
  Percentage of Cell Cycle Distribution G0/G1: 57.7%
  Percentage of Cell Cycle Distribution G2/M: 29.8%
  Percentage of Cell Cycle Distribution S: 12.5%
[3]; SW48, 2 μM
  Percentage of Cell Cycle Distribution G0/G1: 53.9%
  Percentage of Cell Cycle Distribution G2/M: 32.5%
  Percentage of Cell Cycle Distribution S: 13.6%
[3]
  Cell cycle arrest: significantly induced cell cycle arrest in the G2/M phase in SW48 cells
[4]; SW48, 0.125 μM
  Percentages of Cell Apoptosis: 8.5%
[4]; SW48, 0.5 μM
  Percentages of Cell Apoptosis: 18.3%
[4]; SW48, 1 μM
  Percentages of Cell Apoptosis: 24.4%
[4]; SW48, 2 μM
  Percentages of Cell Apoptosis: 37.3%
[4]
  Induction of apoptosis: potent in inducing apoptosis in SW48 cells
[5]
  IC50: 1670 ± 10 nM
[6]
  IC50: 1990 ± 60 nM
[7]
  IC50: 3550 ± 450 nM
[8]
  IC50: 1640 ± 5 nM
[9]
  IC50: 1200 ± 10 nM
[10]
  IC50: 690 ± 30 nM
[11]
  IC50: 280 ± 10 nM
